From patent publication EP4763841A1, “PYRIDAZINONE COMPOUND AND USE THEREOF” (Xi'an Xintong Pharmaceutical Research Co., Ltd., priority 2023, dated 2025)
“Also recorded” adds a separate entry of the source.

How the values were obtained:
[1] = Distribution of compounds in major organs after single gavage administration; type: in vivo, Sprague Dawley rats; conditions: gavage 5 mg/kg single dose, 1 h and 4 h, SD rats, result in words (FIG. 2)
Protocol: 0.25-0.3 ml of Systemic blood (jugular vein) was taken at each blood collection point to be added into an EDTA-K2 anticoagulant tube, uniform mixing was performed by gentle inversion, and the obtained mixture was stored on crushed ice for transport. Collection plan: PO blood collection point: 1 h and 4 h after administration. Animals were euthanized, tissues and organs were taken, and livers (0.3-0.5 g of liver was taken at a fixed position of a large lobe of liver), kidneys, and hearts were weighed, placed in 5 ml centrifuge tubes, quick-frozen on dry ice, and cryopreserved at -20°C.
A solvent (methanol:acetonitrile:water=25:25:50) was added for grinding and homogenization, and this process was performed rapidly by using a tissue grinder.
A solvent was added to the liver to 3 ml, one large steel ball and one small steel ball were added, and grinding was performed at 50 Hz for 60 s. Vortexing was performed for uniform mixing, and centrifugation was performed at 8000 rpm for 5 min. 0.3 ml of a supernatant was taken, a solvent was added until 3 ml, vortexing was performed for uniform mixing, and centrifugation was performed at 8000 rpm for 5 min. 0.1 ml of a supernatant was taken, 0.2 ml of acetonitrile was added, vortexing was performed for 30 s, and centrifugation was performed at 10000 rpm for 5 min. A supernatant was taken and sent for testing to analyze the drug content. […]

[2] = In vivo pharmacokinetic study of elimination phase half-life after single IV bolus; set-up: species or system Sprague Dawley rats; conditions: rat, blood, iv, I.V bolus, 5 mg/kg, rats, read-out: Elimination phase half-life (T1/2) (converted)
Protocol: Blood samples were collected from animals (IV group) before administration and at time points of 0.083 h, 0.25 h, 0.5 h, 1 h, 2 h, 4 h, 8 h, and 24 h after the end of administration. • Sample treatment: prior to blood collection, a centrifuge tube with 10 µl of EDTA-K2 and 1.2 mL of 50% acetonitrile-DMSO (a volume ratio of whole blood to 50% acetonitrile-DMSO is approximately 1:4) was placed in an ice box filled with crushed ice. The collected blood was added to the centrifuge tube, vortexed for at least 5 min, and then temporarily stored and transported in the ice box filled with crushed ice; and the blood was centrifuged at 12,000 g for 10 min at 4°C, wherein centrifugation was completed within 1 h after blood collection. A whole blood supernatant after centrifugation was transferred to a newly labeled tube, and transferred to -60°C or below for storage for analytical testing.

[2H]C([2H])([2H])C(c1c(C)c(Oc2c(Cl)cc(-n3nc(CF)c(=O)[nH]c3=O)cc2Cl)n[nH]c1=O)C([2H])([2H])[2H] [Compound 6]
liver distribution [1]: significant liver distribution advantage over Resmetirom and the compound X1; also recorded: significant liver distribution advantage over Resmetirom and a compound X1 | half-life [2]: 7.8 h
